Reference: US9073879B2, “Oxazole derivatives useful as modulators of FAAH” (MERCK SHARP & DOHME CORP., priority 2010, dated 2015)

Tests used:
human FAAH [1] = biological target: T1, human FAAH (Homo sapiens, UniProt O00519); assay: FAAH whole cell assay (human Whole cell, FAAH_CHO, AAMCA substrate); type: cell-based; conditions: CHO cells expressing human FAAH, whole cell format; read-out: human cell_IC50
T1 construct: The full length FAAH was subcloned into the mammalian expression vector, pcDEF.neo, using XbaI and EcoRI restriction sites; expressed in transfected cells
T1 sequence (O00519 1-579): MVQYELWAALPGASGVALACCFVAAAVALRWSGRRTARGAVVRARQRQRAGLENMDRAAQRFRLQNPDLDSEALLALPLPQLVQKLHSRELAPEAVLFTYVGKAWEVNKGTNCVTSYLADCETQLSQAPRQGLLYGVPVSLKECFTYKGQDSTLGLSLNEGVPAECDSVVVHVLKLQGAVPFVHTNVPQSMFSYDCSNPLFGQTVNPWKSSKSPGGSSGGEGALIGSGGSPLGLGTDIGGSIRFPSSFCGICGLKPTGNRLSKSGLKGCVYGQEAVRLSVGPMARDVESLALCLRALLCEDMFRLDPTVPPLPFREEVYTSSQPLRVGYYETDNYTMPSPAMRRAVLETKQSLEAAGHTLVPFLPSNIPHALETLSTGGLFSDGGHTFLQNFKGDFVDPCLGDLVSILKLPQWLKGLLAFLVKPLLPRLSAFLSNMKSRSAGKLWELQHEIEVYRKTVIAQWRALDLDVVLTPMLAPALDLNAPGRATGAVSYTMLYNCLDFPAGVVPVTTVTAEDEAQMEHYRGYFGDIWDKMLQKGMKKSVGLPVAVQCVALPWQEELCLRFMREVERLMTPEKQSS
Source text: (§1) To assist in assay development stable cell lines for human, murine and rat full length FAAH were developed. Human FAAH cDNA (Accession No: NM_001441.1) was purchased from Origene (Rockville, Md.). The full length FAAH was subcloned into the mammalian expression vector, pcDEF.neo, using XbaI and EcoRI restriction sites and used for stable cell line generation.
Murine (accession number NM_010173) and Rat FAAH (accession number NM_024132) was amplified by reverse transcriptase polymerase chain reaction (RT-PCR) from brain cDNA (BD Biosciences, San Jose, Calif.) using primers 1 and 2 or primers 1 and 3 respectively (see Table). The resulting PCR product was ligated into pCR4 TOPO and DNA sequence confirmed. The full length murine FAAH was subcloned into the mammalian expression vector, pcDEFneo using either EcoRI (murine) or KpnI and EcoRI (rat) restriction sites. Chinese hamster ovary cells (CHO) were transfected following manufacturers protocol (AMAXA). Forty eight hours post transfection, cells were trypsinized and transferred to 96 well plates in Iscove's DMEM media supplemented with 2 mM Glutamine, 10% fetal calf serum, 1 mg/ml geneticin and HT Supplement (0.1 mM sodium hypoxanthine, 0.016 mM thymidine) in order to isolate single clones. Following selection in geneticin, individual clones were selected and FAAH activity was assessed using a whole cell fluorescent anandamide assay, modified from Ramarao et al (2005). Following removal of tissue culture media cells were dislodged following addition of Cellstripper (Mediatech, Inc. Manassas, Va.) and transferred to 96 well black clear bottom assay plate, centrifuged at 1,000 rpm for 3 mins and media removed and replaced with assay buffer (50 mM Tris pH8.0, 1 mM EDTA, 0.1% fatty acid free BSA). The reaction was initiated by addition of fluorescent substrate, AMC Arachidonoyl Amide (Cayman Chemical, Ann Arbor, Mich.) to 1 μM and reaction allowed to proceed for 2 hours at room temperature. Release of fluorescence was monitored in a CytoFluor Multiplate Reader. Cells expressing the highest amount of FAAH activity were selected for study with FAAH inhibitors.
(§2) Assays are performed on either cell lysate or microsome fractions prepared as described or in whole cell format employing either the fluorescent substrate AAMCA (Cayman chemical, Ann Arbor, Mich.) or ^3H-anandamide ([ETHANOLAMINE-1-3H] American Radiolabeled Chemicals; 1 mCi/ml). The cell lysate or microsome assay is performed in black PerkinElmer OptiPlates-384F by adding FAAH_CHO (whole cell (shown as human Whole cell or Human WC), cell lysate (shown as human lysate of human LY) or microsome) in assay buffer (50 mM Phosphate, pH 8.0, 1 mM EDTA, 200 mM KCl, 0.2% glycerol, 0.1% fatty acid free BSA) to each well, followed by either DMSO or compound and allowed to incubate at 22-25° C. for fifteen minutes. AAMCA substrate was used to achieve a final concentration of 1 μM and reaction allowed to proceed at room temperature for 1-3 hours. Fluorescent release as a measure of FAAH activity was monitored by reading the plate in an Envision plate Reader (Ex: 360/40 nM; Em: 460/40 nM). Whole cell assay is conducted with cells harvested after rinsing tissue culture flasks three times with Ca^++Mg^++ free PBS, incubating for 10 min in Enzyme free dissociation media and centrifuging for 5 minutes at 1,000 rpm in table top centrifuge. Cells are resuspended in assay buffer at desired cell number in (4×10^4 cells/assay in 96-well format; 1×10^4 cells/assay in 384-well format) and assayed as described.

human FAAH [2] = biological target: T1, human FAAH; assay: FAAH cell lysate assay (human lysate, FAAH_CHO, AAMCA substrate); type: biochemical; conditions: lysate of CHO cells expressing human FAAH; read-out: human lysate_IC50
Source text: as §1
CHO cells expressing FAAH were used to prepare either crude cell lysate or microsome fractions. To harvest cells, tissue culture media was decanted, the monolayer washed three times with Ca^++Mg^++ free PBS and cells recovered after 15 mm in enzyme free dissociation media (Millipore Corp, Billerica, Mass.). Cells were collected by centrifuging at 2000 rpm for 15 min. and the cell pellet re-suspended with 50 mM HEPES (pH 7.4) containing 1 mM EDTA and the protease inhibitors aprotinin (1 mg/ml) and leupeptin (100 μM). The suspension was sonicated at 4° C. and the cell lysate recovered after centrifuging at 12,000×g (14,600 rpm, SS34 rotor) for 20 min at 4° C. to form a crude pellet of cell debris, nuclei, peroxisomes, lysosomes, and mitochondria; the supernatant or cell lysate was used for FAAH enzyme assay. In some cases, microsomes fractions enriched in FAAH were prepared by centrifuging the cell lysate further at 27,000 rpm (100,000×g) in SW28 rotor for 50 minutes at 4° C. The pellet containing FAAH-enriched microsomes was re-suspend in 50 mM HEPES, (pH 7.4) 1 mM EDTA, and any remaining DNA sheared by passage of material through a 23 gauge needle and aliquots of enzyme were store at −80° C. prior to use.
(American Radiolabeled Chemicals; 1 mCi/ml) with FAAH (Life Sciences (1995), 56, 1999-2005 and Journal of Pharmacology and Experimented Therapeutics (1997), 283, 729-734), Analytical. Biochemistry (2003), 318:270-5. In addition, routine assays were performed monitoring hydrolysis of araehidonyl-7-amino-4-methylcoumarin amide (AAMCA) by following increase in fluorescence upon release of 7-amino 4-methyl coumarin (λEX=355 nm, (λEM=460 nm). Analytical. Biochemistry (2005). 343:143-51
as §2

Structure (SMILES): COC(=O)c1ccc(OC(C)c2nc(-c3ccc(F)cc3)oc2Sc2ccc(Cl)cn2)cc1 (centres unmarked) [Example B7.1, methyl 4-(1-{5-[(5-chloropyridin-2-yl)sulfanyl]-2-(4-fluorophenyl)-1,3-oxazol-4-yl}ethoxy)benzoate]
- IC50 (human FAAH [1]): 39 nM
- IC50 (human FAAH [2]): 8 nM

Structure (SMILES): CNC(=O)c1ccc(OC(C)c2nc(-c3ccc(F)cc3)oc2Sc2ccc(Cl)cn2)cc1 (centres unmarked) [Example B7.2, 4-(1-{5-[(5-chloropyridin-2-yl)sulfanyl]-2-(4-fluorophenyl)-1,3-oxazol-4-yl}ethoxy)-N-methylbenzamide]
- IC50 (human FAAH [1]): 80 nM
- IC50 (human FAAH [2]): 21 nM

Structure (SMILES): COC(=O)c1ccc(OCc2nc(C3CC3)oc2Sc2ccc(Cl)cn2)cc1 [Example D4.1, methyl 4-({5-[(5-chloropyridin-2-yl)sulfanyl]-2-cyclopropyl-1,3-oxazol-4-yl}methoxy)benzoate]
- IC50 (human FAAH [1]): 1310 nM
- IC50 (human FAAH [2]): 187 nM

Structure (SMILES): Clc1ccc(Sc2oc(C3CC3)nc2COc2ccc3[nH]ncc3c2)nc1 [Example D4.2, 5-({5-[(5-chloropyridin-2-yl)sulfanyl]-2-cyclopropyl-1,3-oxazol-4-yl}methoxy)-1H-indazole]
- IC50 (human FAAH [1]): 979 nM
- IC50 (human FAAH [2]): 317 nM
